Experimental data taken from US11219623B2, “Inflammasome inhibition for the treatment of Parkinson's disease, Alzheimer's disease and multiple sclerosis” (University of Kentucky Research Foundation, priority 2015, dated 2022).
Entries after “also recorded” stand apart in the source; their conditions may differ.

Columns and labels:
[1] = LogP, partition coefficient in 1-octanol; assay type: physicochemical; conditions: 1-octanol partition
Caspase-1 [2] = experiment: iGLuc luminescence assay of ATP-induced Caspase-1 activation in J774 iGLuc cells; assay type: cell-based, mouse
Experimental: Caspase-1 is the enzyme at the core of the inflammasome complex and is an important danger response signal and mediator of RPE cell death in AMD. […] Importantly, there was some difference between individual compounds in terms of the dose response curve, emphasizing the need to test each compound (with unique R group(s)) individually.
To obtain the data set forth in FIGS. 64-73, an iGLuc assay was conducted (modified from Bartok et al. iGLuc: a luciferase-based inflammasome and protease activity reporter. Nature Methods 2013; 10(2):147-54). Briefly, 100,000 iGLuc cells per well were plated in a 96 well plate overnight. The next morning, media is aspirated from the plate and replaced with 75 μL of serum free DMEM with drugs (NRTIs or modified NRTIs) for 30 min. After 30 minutes of drug exposure, 20 mM ATP (25 μL) is added for a final concentration of 5 mM. 50 μL of media from each well is collected and 50 μL of coelenterazine 4.4 μM is added to each sample, and luminescence is read immediately.

Caspase-1 [3] = experiment: Alu RNA-induced Caspase-1 activation, primary mouse RPE cells; assay type: cell-based
IRAK4 [4] = experiment: Alu RNA-induced IRAK4 phosphorylation, primary mouse RPE cells; assay type: cell-based
IRAK4 [5] = experiment: LPS/ATP-induced IRAK4 phosphorylation, primary human RPE cells; assay type: cell-based; conditions: 25/100 uM
Excerpt: The loading control in FIG. 8 is vinculin. Furthermore, as shown, LPS and ATP activate the NLRP3 inflammasome only in combination, thus treatment with one or the other alone is useful as a control for this experiment.

IL-18 = experiment: LPS/ATP-induced IL-18 maturation, mouse bone marrow-derived macrophages; assay type: cell-based; conditions: 100 uM; cell culture supernatants
IL-1 beta [6] = experiment: Nigericin-induced IL-1 beta maturation, mouse bone marrow-derived macrophages; assay type: cell-based; conditions: 100, 250 uM
IL-1 beta [7] = experiment: MSU-induced IL-1 beta secretion from PMA-differentiated THP-1 monocytes, ELISA; assay type: cell-based, human; conditions: 25-1000 uM
Excerpt: Human THP-1 monocytes were differentiated into macrophages with PMA.
To illustrate this, human THP-1 monocytes were differentiated into macrophages with PMA. Treatment with MSU increased IL-1 beta secretion compared to non-treated cells. […]

[8] = tested on: mitochondrial reactive oxygen species (mtROS); experiment: Mitochondrial ROS caused by Alu expression, MitoSox assay, primary human RPE cells; assay type: cell-based
Experimental: After 15 hours cells were co-stained for mtROS (red) and for cell count, nuclei (blue; Hoechst DNA stain).
In FIG. 54, mitochondrial reactive oxygen species (ROS) were visualized with MitoSox (Red) and cell nuclei with Hoechst (Blue).

mouse P2X7 receptor = molecular target: T1, mouse P2X7 receptor (Mus musculus, UniProt Q9Z1M0); experiment: P2X7 cation channel function, patch clamp, HEK293 cells expressing mouse P2X7; assay type: cell-based; conditions: mouse P2X7 in HEK293
T1 construct: expressed in transfected cells; host or cells: HEK293 cells
T1 sequence (Q9Z1M0 whole entry): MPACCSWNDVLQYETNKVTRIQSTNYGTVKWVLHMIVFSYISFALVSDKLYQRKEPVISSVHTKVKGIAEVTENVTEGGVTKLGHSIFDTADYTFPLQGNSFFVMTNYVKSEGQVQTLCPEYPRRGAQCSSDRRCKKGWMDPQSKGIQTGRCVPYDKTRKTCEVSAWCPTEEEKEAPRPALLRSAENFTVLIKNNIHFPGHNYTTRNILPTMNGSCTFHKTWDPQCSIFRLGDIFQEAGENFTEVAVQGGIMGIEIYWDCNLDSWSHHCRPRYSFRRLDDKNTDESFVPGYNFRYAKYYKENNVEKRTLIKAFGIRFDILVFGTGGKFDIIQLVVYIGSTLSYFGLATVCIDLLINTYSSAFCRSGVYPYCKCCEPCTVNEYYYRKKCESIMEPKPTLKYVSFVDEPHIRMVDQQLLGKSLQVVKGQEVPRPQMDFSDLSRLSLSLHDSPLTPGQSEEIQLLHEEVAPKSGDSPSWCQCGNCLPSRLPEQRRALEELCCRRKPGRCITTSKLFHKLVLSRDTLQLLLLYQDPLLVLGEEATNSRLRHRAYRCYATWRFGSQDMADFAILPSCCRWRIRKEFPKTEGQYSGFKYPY

rat P2X7 receptor = molecular target: T2, rat P2X7 receptor (Rattus norvegicus, UniProt Q64663); experiment: P2X7 cation channel function, patch clamp, HEK293 cells expressing rat P2X7; assay type: cell-based; conditions: rat P2X7 in HEK293
T2 construct: expressed in transfected cells; host or cells: HEK293 cells
T2 sequence (Q64663 whole entry): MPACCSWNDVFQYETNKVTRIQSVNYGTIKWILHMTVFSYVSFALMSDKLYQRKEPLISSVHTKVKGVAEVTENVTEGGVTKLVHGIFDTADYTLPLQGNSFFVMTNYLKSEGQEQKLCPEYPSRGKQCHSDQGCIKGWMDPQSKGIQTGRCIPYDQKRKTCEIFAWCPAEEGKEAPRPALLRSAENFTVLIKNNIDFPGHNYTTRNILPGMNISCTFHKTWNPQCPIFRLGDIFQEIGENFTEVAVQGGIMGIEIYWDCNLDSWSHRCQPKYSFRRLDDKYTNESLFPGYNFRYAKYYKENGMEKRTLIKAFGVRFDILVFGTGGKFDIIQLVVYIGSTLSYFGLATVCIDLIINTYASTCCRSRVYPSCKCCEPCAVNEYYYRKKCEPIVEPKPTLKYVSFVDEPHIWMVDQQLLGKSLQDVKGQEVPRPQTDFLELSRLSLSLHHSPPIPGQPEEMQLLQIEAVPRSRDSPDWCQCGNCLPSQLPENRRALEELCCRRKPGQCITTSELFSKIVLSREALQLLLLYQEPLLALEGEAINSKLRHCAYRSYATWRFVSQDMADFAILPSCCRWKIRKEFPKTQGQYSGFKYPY

[9] = tested on: GFP-expressing lentivirus; experiment: GFP-expressing lentivirus transduction/replication assay in HeLa cells; assay type: cell-based
Experimental: All drugs were added at a concentration of 10 μM. Cells were imaged for GFP expression 72 hours after addition of lentivirus. GFP-positive cells per field of view were recorded. n=4-11, error bars S.E.M. Reverse transcription of lentivirus is essential for GFP expression; modified NRTIs should not block reverse transcriptase, whereas NRTIs are known to block reverse transcriptase.
The present disclosure further provides the results of additional experiments in FIG. 21-FIG. 23.

[10] = tested on: human LINE-1 retrotransposon; experiment: EGFP cell culture L1 retrotransposition assay in HeLa cells; assay type: cell-based; conditions: 7 days after transfection, flow cytometry
Experimental: These findings pave way for the rational re-design and improvement of nucleoside analogs as novel therapeutics. The enhanced green fluorescent protein (EGFP) cell culture L1 retrotransposition assay was performed in HeLa cells. […] Transfected cells were selected in puromycin. 7 days after transfection, cells that underwent retrotransposition (EGFP-positive) were assayed by flow cytometry. Cells were gated based on background fluorescence of plasmid JM111, which has two point mutations in L1-ORF1 that abolish retrotransposition. Data are normalized with RPS set to 1.

mice = experiment: Iron-induced RPE degeneration in mice; assay type: in vivo, mouse; conditions: intraperitoneal 25 mg/kg days 1 to 6; read day 7

Cc1cn([C@H]2C=C[C@@H](CO)O2)c(=O)[nH]c1=O [d4T, 2′3′ dideoxythymidine]
logP [1]: -0.23
Caspase-1 cleavage (luminescence) (Caspase-1 [2]; ATP 5 mM, drug 1 nM-100 μM, N=3): reduces Caspase-1 cleavage in a dose-dependent fashion
reduction of inflammasome activation (Caspase-1 [2]; ATP (5 mM), mouse J774 iGLuc cells, FIGS. 70-73): about 35%
Caspase 1 cleavage to active 20 kDa form induced by Alu RNA (Caspase-1 [3]): prevents Caspase 1 cleavage
IRAK4 phosphorylation induced by Alu RNA (IRAK4 [4]): blocks phosphorylation of IRAK4
IRAK4 phosphorylation induced by LPS/ATP (IRAK4 [5]): blocks
IL-18 maturation induced by LPS/ATP (IL-18): inhibit
IL-1 beta maturation (18 and 22 kDa forms) induced by nigericin (IL-1 beta [6]): inhibits IL-1 beta maturation
IL-1beta secretion induced by MSU (IL-1 beta [7]): did not significantly affect IL-1beta secretion
mitochondrial ROS caused by Alu expression (pAluA) [8]: reduces mitochondrial ROS; also recorded: prevents pAlu-induced mitochondrial ROS generation
P2X7 cation channel function (mouse P2X7 receptor): did not significantly modulate P2X7 cation channel function
P2X7 cation channel function (rat P2X7 receptor): did not significantly modulate P2X7 cation channel function
lentivirus replication (GFP-positive cells per field) ([9]; 10 μM, 72 hours, MOI 20): blocked lentivirus GFP expression
replication of GFP-expressing lentivirus ([9]; FIG. 22, concentration not given): blocks replication
L1 retrotransposition (EGFP-positive cells) [10]: blocked L1 retrotransposition
Iron-induced RPE degeneration (mice): blocked the development of RPE degeneration
